Laboratory results taken from ChEMBL document CHEMBL1938248, “Symmetric dimers of ent-kaurane diterpenoids with cytotoxic activity from Croton tonkinensis” (Bioorg Med Chem Lett, 2012).

Legend:
Format in all cases: functional, cell-based
MDA-MB-231 = test: Cytotoxicity against human MDA-MB-231 cells by WST-1 assay
MCF7 [1] = test: Cytotoxicity against human tamoxifen-resistant MCF7 cells by WST-1 assay
[2] = Cytotoxicity against human MCF7/ADR cells by WST-1 assay; conditions: NCI/ADR-RES
MCF7 [3] = test: Cytotoxicity against human MCF7 cells by WST-1 assay

SMILES	IC50 (MDA-MB-231)	IC50 (MCF7 [1])	IC50 [2]	IC50 (MCF7 [3])
CC(=O)OC[C@@]1(C)CCC[C@]2(C)[C@@H]1C[C@@H](O)[C@@]13C[C@H](CC[C@@H]21)[C@@](O)(CC[C@@]1(O)C(=O)[C@]24C[C@@H]1CC[C@H]2[C@]1(C)CCC[C@](C)(COC(C)=O)[C@H]1C[C@H]4O)C3=O [CROTONKINENSIN D]	22 µM	2.6 µM	18.9 µM	9.4 µM
C[C@]1(CO)CCC[C@]2(C)[C@@H]1C[C@@H](O)[C@@]13C[C@H](CC[C@@H]21)[C@@](O)(CC[C@@]1(O)C(=O)[C@]24C[C@@H]1CC[C@H]2[C@]1(C)CCC[C@](C)(CO)[C@H]1C[C@H]4O)C3=O [CROTONKINENSIN C]	> 30 µM	> 30 µM	> 30 µM	> 30 µM
CC[C@@]1(O)C(=O)OCc2c1cc1n(c2=O)Cc2cc3ccccc3nc2-1 [CAMPTOTHECIN]	2.7 µM	1.8 µM	0.8 µM	2.6 µM
COc1cccc2c1C(=O)c1c(O)c3c(c(O)c1C2=O)C[C@@](O)(C(=O)CO)C[C@@H]3O[C@H]1C[C@H](N)[C@H](O)[C@H](C)O1 [DOXORUBICIN]	–	–	83.2 µM	–
